Reference: ChEMBL document CHEMBL1147445, “Antagonists of human CCR5 receptor containing 4-(pyrazolyl)piperidine side chains. Part 2: Discovery of potent, selective, and orally bioavailable compounds” (Bioorg Med Chem Lett, 2004)

Legend:
[1] = Inhibition of HIV-1 infectivity using peripheral bloodmonon uclear cells against the BAL-1 strain in the presence of 50% normal human serum (NHS); format: functional
[2] = tested on: Rattus norvegicus; assay: Volumes of distribution in rat after po administration; details: in vivo
[3] = in vivo; details: rat
[4] = tested on: Rattus norvegicus; assay: Area under curve in rat after p.o. administration; details: in vivo, po
[5] = Inhibition of HIV-1 infectivity using peripheral bloodmonon uclear cells against the BAL-1 strain; format: functional; details: Homo sapiens
[6] = Oral bioavailability in rat; details: in vivo
[7] = in vivo; details: rat, plasma
[8] = molecular target: T1, C-C chemokine receptor type 5 (Homo sapiens, UniProt P51681); assay: Inhibitory concentration of compound to displace GP120 from […] chemokine receptor 5
[9] = tested on: HeLa; assay: In vitro antiviral activity against HIV-1 infected HeLa cells; format: functional; details: Homo sapiens
[10] = molecular target: T1, C-C chemokine receptor type 5; assay: Displacement of [125I]-MIP-1 alpha from human […] chemokine receptor 5 expressed in CHO cells; format: cell-based
[11] = Clearance rat (dosed at 0.5 mpk IV and 2.0 mpk po.); format: ADME, organism-based; details: plasma, 0.5 mg/kg, read-out: Clp
[12] = Half life in dog (dosed at 0.5 mpk iv and 2.0 mpk orally); format: ADME, organism-based, Canis lupus familiaris; details: in vivo
[13] = Plasma clearance in dog (dosed at 0.5 mpk iv and 2.0 mpk orally); format: ADME, organism-based, Canis lupus familiaris; details: 0.5 mg/kg, read-out: Clp
[14] = Oral bioavailability in dog (dose 0.5 mg/kg i.v. and 2.0 mg/kg p.o.); format: ADME, organism-based, Canis lupus familiaris; details: in vivo
[15] = tested on: Canis familiaris; assay: Oral AUCN in dog (dosed at 2.0 mpk po ); details: in vivo, 2.0 mg/kg
[16] = Oral bioavailability in monkey (dosed at 0.5 mpk iv and 2.0 mpk orally); format: ADME, organism-based; details: cercopithecidae, in vivo, 2 mg/kg
[17] = Plasma clearance in monkey (dosed at 0.5 mpk iv and 2.0 mpk orally); format: ADME, organism-based; details: cercopithecidae, 0.5 mg/kg, read-out: Clp
[18] = Oral AUCN in monkey (dosed at 0.5 mpk iv ); format: ADME, organism-based; details: cercopithecidae, in vivo, 0.5 mg/kg
[19] = Half life in monkey (dosed at 0.5 mpk iv and 2.0 mpk orally); format: ADME, organism-based; details: cercopithecidae, in vivo
[20] = molecular target: T1, C-C chemokine receptor type 5; assay: Inhibitory concentration of compound to displace GP120 from […] chemokine receptor 5; remark: listed apart in the source
[21] = tested on: Rattus norvegicus; assay: Area under curve in rat after peroral administration; format: ADME, organism-based; details: in vivo, po

T1 sequence (P51681 whole entry): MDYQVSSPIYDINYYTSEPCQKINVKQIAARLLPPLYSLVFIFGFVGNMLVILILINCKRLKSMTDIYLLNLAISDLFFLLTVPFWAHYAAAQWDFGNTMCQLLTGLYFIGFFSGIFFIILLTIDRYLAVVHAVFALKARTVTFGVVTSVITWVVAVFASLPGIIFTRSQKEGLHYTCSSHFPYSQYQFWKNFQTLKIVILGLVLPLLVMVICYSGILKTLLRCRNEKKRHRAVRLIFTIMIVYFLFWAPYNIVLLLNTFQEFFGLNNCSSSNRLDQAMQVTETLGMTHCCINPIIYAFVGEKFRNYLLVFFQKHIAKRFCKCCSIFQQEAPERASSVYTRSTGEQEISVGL

Structure (SMILES)	IC95 [1] [µM]	half-life [3] [min]	AUC N [4] [uM hr dose-1]	IC95 [5] [nM]	bioavailability [6] [%]	clearance [7] [mL/min/kg]	IC90 [9] [nM]	IC50 [10] [nM]	other results
CCn1nc(Cc2ccccc2)cc1C1CCN(C[C@H]2CN([C@H](CC(C)C)C(=O)O)C[C@@H]2c2ccccc2)CC1	0.125	72	0.13	< 8	17	43	3.7	–	Vdss [2]: 2.1 L/kg; IC50 [8]: 2.9 nM
CCn1nc(Cc2ccccc2)cc1C1CCN(C[C@H]2CN([C@@](C)(C(=O)O)C(C)C)C[C@@H]2c2cccc(F)c2)CC1	–	–	–	–	–	–	300	1.6	–
CCn1nc(Cc2ccccc2)cc1C1CCN(C[C@H]2CN([C@@H](C(=O)O)C(C)C)C[C@@H]2c2ccccc2)CC1	–	336	0.45	–	17	–	11	–	clearance [11]: 12.6 mL/min/kg; IC50 [8]: 2.8 nM
CCn1nc(Cc2ccccc2)cc1C1CCN(C[C@H]2CN([C@@H](C(=O)O)C(C)(C)C)C[C@@H]2c2cccc(F)c2)CC1	–	47.4	3.7	–	71	5.7	< 0.14	0.8	half-life [12]: 38.4 min; clearance [13]: 13 mL/min/kg; bioavailability [14]: 44%; AUC N [15]: 1 uM hr dose-1
CCn1nc(Cc2ccccc2)cc1C1CCN(C[C@H]2CN([C@H](CC3CCC3)C(=O)O)C[C@@H]2c2cccc(F)c2)CC1	0.035	42.6	0.05	< 0.8	7.3	–	0.4	1.2	clearance [11]: 46 mL/min/kg
CCn1nc(Cc2ccccc2)cc1C1CCN(C[C@H]2CN([C@@H](C(=O)O)C(C)C)C[C@@H]2c2cccc(F)c2)CC1	0.35	84	1.1	22	11	3.2	3.7	1.5	half-life [12]: 204 min; bioavailability [16]: 4.7%; clearance [13]: 3.5 mL/min/kg; bioavailability [14]: 20%; clearance [17]: 20 mL/min/kg; AUC N [18]: 0.08 uM hr dose-1; half-life [19]: 78 min; AUC N [15]: 1.9 uM hr dose-1
CC[C@H](C)[C@H](C(=O)O)N1C[C@H](CN2CCC(c3cc(Cc4ccccc4)nn3CC)CC2)[C@@H](c2cccc(F)c2)C1	–	–	–	–	–	–	0.4	0.9	–
CCn1nc(Cc2ccccc2)cc1C1CCN(C[C@H]2CN([C@H](CC3CC3)C(=O)O)C[C@@H]2c2cccc(F)c2)CC1	0.031	15	0.03	< 8	8.1	–	0.4	1.2	clearance [11]: 81 mL/min/kg
CCn1nc(Cc2ccccc2)cc1C1CCN(C[C@H]2CN([C@@H](C(=O)O)C3CCC3)C[C@@H]2c2ccccc2)CC1	–	60	0.06	–	11	–	3.7	1.6	clearance [11]: 60 mL/min/kg
CCn1nc(Cc2ccccc2)cc1C1CCN(C[C@H]2CN([C@@H](C(=O)O)C3CCCCC3)C[C@@H]2c2cccc(F)c2)CC1	–	–	–	–	–	–	0.4	1.6	–
CCn1nc(Cc2ccccc2)cc1C1CCN(C[C@H]2CN([C@@H](C(=O)O)C3CCCCC3)C[C@@H]2c2ccccc2)CC1	< 0.008	–	–	< 8	–	–	0.4	–	IC50 [20]: 2 nM; AUC N [21]: 0.02 uM hr dose-1
CCn1nc(Cc2ccccc2)cc1C1CCN(C[C@H]2CN([C@](C)(C(=O)O)C(C)C)C[C@@H]2c2cccc(F)c2)CC1	–	44.4	0.62	–	21	10	> 300	5.5	Vdss [2]: 0.43 L/kg
CC[C@@H](C)[C@H](C(=O)O)N1C[C@H](CN2CCC(c3cc(Cc4ccccc4)nn3CC)CC2)[C@@H](c2cccc(F)c2)C1	–	32.4	0.16	–	13	25	< 0.14	0.8	–
CCC(CC)[C@H](C(=O)O)N1C[C@H](CN2CCC(c3cc(Cc4ccccc4)nn3CC)CC2)[C@@H](c2cccc(F)c2)C1	–	35.4	0.8	–	52	19	0.4	0.9	–
